Laboratory results: patent US9745335B2 (Blirt S.A., priority 2012, dated 2017)
Read-outs that look alike come from different tables or passages of the source.

Experiments:
Format in all cases: cell-based
Candida krusei DSM 6128 = assay: antifungal activity in vitro, serial dilution in RPMI 1640
Experimental: (§1) For the determination of antifungal activity in vitro we used method of serial dilution in buffered medium RPMI 1640, pH 7.0, in a 96-wells microplates, according to the standard procedure (National Committee for Clinical Laboratory Standards. Reference method for broth dilution antifungal susceptibility testing of yeast, approved standard, 2nd ed. M27-A2 vol. 22 Wayne, Pa., 2002). The optical density of cells suspension was measured using a microplates reader (Victor^3, Perkin-Elmer) at the wavelength λ=531 nm (A531). On the basis of obtained results the diagrams of relation between A531 values and concentration of examined compound were made.

[1] = system: Candida glabrata DSM 11226; assay: as above
Experimental: as §1

[2] = system: Candida tropicalis KKP 334; assay: as above
Experimental: as §1

[3] = system: Saccharomyces cerevisiae ATCC 9763; assay: as above; settings: RPMI 1640, pH 7.0; for Antifungal activity IC50: Saccharomyces cerevisiae ATCC 9763 (first head over MIC and IC50); for Antifungal activity MIC: Saccharomyces cerevisiae ATCC 9763
Experimental: as §1

[4] = system: Candida lusitaniae DSM 70102; assay: as above
Experimental: as §1

[5] = system: Candida albicans ATCC 10231; assay: as above
Experimental: as §1

Human erythrocytes = assay: hemotoxicity determination (hemolytic activity)
Experimental: The hemotoxicity determination was carried out by the serial dilutions method, according to the procedure described earlier (Slisz, M., et al., E., J Antibiot 57: 669-678 (2004). Human erythrocytes were suspended in the solution of saline to obtain a cell density of suspension 2×10^7/ml. Suitable amounts of diluted solutions of compounds were added to the cell suspension in tubes and were incubated at 37° C. for 30 minutes and then centrifuged (1700×g, 10 min, 4° C.). The concentration of hemoglobin in supernatant after centrifugation of erythrocytes suspension were determined by measuring the absorbance at wavelength λ=540 nm (A540). The maximum level of hemolysis was obtained after incubation of cells suspension in the presence of 0.1% Tritone X-100 (control sample). […] From these graphs, the EH50 values were read which are the interpolated concentrations of compound, for which the A540 value is exactly 50% of the A540 value measured for the control sample.

Row | SMILES | Antifungal activity MIC (Candida krusei DSM 6128) | Antifungal activity MIC [1] | Antifungal activity MIC [2] | Antifungal activity IC50 [3] | Antifungal activity MIC [3] | Antifungal activity MIC [4] | Antifungal activity MIC [5] | Hemotoxi EH50 (Human erythrocytes) | Hemotoxi EH50 (Human erythrocytes; human erythrocytes, 37° C., 30 minutes)
1 | Cc1cc(C)c(N2C(=O)CC(N[C@@H]3[C@H](O)[C@H](O[C@H]4/C=C/C=C/C=C/C=C/C=C/C=C/C=C/[C@H](C)[C@@H](O)[C@@H](C)[C@H](C)OC(=O)C[C@H](O)C[C@H](O)CC[C@@H](O)[C@H](O)C[C@H](O)C[C@]5(O)C[C@H](O)[C@@H](C(=O)O)[C@H](C4)O5)O[C@H](C)[C@H]3O)C2=O)c(C)c1 (stereo partly shown) [Compound A1, N—[N-(2,4,6-trimethylphenyl)succinimidyl]amphotericin B] | 8 µg/mL | 8 µg/mL | 4 µg/mL | 0.98 µg/mL | 2 µg/mL | 2 µg/mL | 4 µg/mL | >100 µg/mL | –
2 | C[C@@H]1[C@H](O)[C@@H](C)/C=C/C=C/C=C/C=C/C=C/C=C/C=C/[C@H](O[C@@H]2O[C@H](C)[C@@H](O)[C@H](NC3CC(=O)N(Cc4ccccc4)C3=O)[C@@H]2O)C[C@@H]2O[C@](O)(C[C@@H](O)C[C@@H](O)[C@H](O)CC[C@@H](O)C[C@@H](O)CC(=O)O[C@H]1C)C[C@H](O)[C@H]2C(=O)O (stereo partly shown) [Compound A2, N—(N-benzylsuccinimidyl)amphotericin B] | 8 µg/mL | 8 µg/mL | 4 µg/mL | 2.22 µg/mL | 4 µg/mL | 2 µg/mL | 4 µg/mL | >100 µg/mL | –
3 | C[C@@H]1[C@H](O)[C@@H](C)/C=C/C=C/C=C/C=C/C=C/C=C/C=C/[C@H](O[C@@H]2O[C@H](C)[C@@H](O)[C@H](NC3CC(=O)N(CC(C)(C)CN(C)C)C3=O)[C@@H]2O)C[C@@H]2O[C@](O)(C[C@@H](O)C[C@@H](O)[C@H](O)CC[C@@H](O)C[C@@H](O)CC(=O)O[C@H]1C)C[C@H](O)[C@H]2C(=O)O (stereo partly shown) [Compound A7, N-{N-[3-(N,N-dimethylamino)-2,2-dimethylpropyl]succinimidyl}amphotericin B] | 4 µg/mL | 4 µg/mL | 2 µg/mL | 0.70 µg/mL | 2 µg/mL | 1 µg/mL | 4 µg/mL | >100 µg/mL | –
4 | C[C@@H]1[C@H](O)[C@@H](C)/C=C/C=C/C=C/C=C/C=C/C=C/C=C/[C@H](O[C@@H]2O[C@H](C)[C@@H](O)[C@H](NC3CC(=O)N(CCO)C3=O)[C@@H]2O)C[C@@H]2O[C@](O)(C[C@@H](O)C[C@@H](O)[C@H](O)CC[C@@H](O)C[C@@H](O)CC(=O)O[C@H]1C)C[C@H](O)[C@H]2C(=O)O (stereo partly shown) [Compound A8, N—[N-(2-hydroxyethyl)succinimidyl]amphotericin B] | 8 µg/mL | 8 µg/mL | 4 µg/mL | 1.36 µg/mL | 4 µg/mL | 4 µg/mL | 4 µg/mL | >100 µg/mL | –
5 | C[C@@H]1[C@H](O)[C@@H](C)/C=C/C=C/C=C/C=C/C=C/C=C/C=C/[C@H](O[C@@H]2O[C@H](C)[C@@H](O)[C@H](NCc3ccc(-c4ccccc4)cc3)[C@@H]2O)C[C@@H]2O[C@](O)(C[C@@H](O)C[C@@H](O)[C@H](O)CC[C@@H](O)C[C@@H](O)CC(=O)O[C@H]1C)C[C@H](O)[C@H]2C(=O)O [Compound A20, N-[(4-biphenyl)methyl]amphotericin B] | 4 µg/mL | 4 µg/mL | 4 µg/mL | 1.63 µg/mL | 4 µg/mL | 4 µg/mL | 4 µg/mL | – | >100 µg/mL
6 | C[C@@H]1[C@H](O)[C@@H](C)/C=C/C=C/C=C/C=C/C=C/C=C/C=C/[C@H](O[C@@H]2O[C@H](C)[C@@H](O)[C@H](NCc3ccc(C(C)(C)C)cc3)[C@@H]2O)C[C@@H]2O[C@](O)(C[C@@H](O)C[C@@H](O)[C@H](O)CC[C@@H](O)C[C@@H](O)CC(=O)O[C@H]1C)C[C@H](O)[C@H]2C(=O)O [Compound A21, N-(4-tert-butylbenzyl)amphotericin B] | 4 µg/mL | 4 µg/mL | 4 µg/mL | 1.58 µg/mL | 4 µg/mL | 2 µg/mL | 4 µg/mL | >100 µg/mL | –
7 | C[C@@H]1[C@H](O)[C@@H](C)/C=C/C=C/C=C/C=C/C=C/C=C/C=C/[C@H](O[C@@H]2O[C@H](C)[C@@H](O)[C@H](NC(=S)Nc3ccccc3)[C@@H]2O)C[C@@H]2O[C@](O)(C[C@@H](O)C[C@@H](O)[C@H](O)CC[C@@H](O)C[C@@H](O)CC(=O)O[C@H]1C)C[C@H](O)[C@H]2C(=O)O [Compound A23, N-[(3-phenyl)-thioureidyl]amphotericin B] | 8 µg/mL | 8 µg/mL | 4 µg/mL | 2.54 µg/mL | 4 µg/mL | 4 µg/mL | 4 µg/mL | >100 µg/mL | –
8 | C[C@@H]1[C@H](O)[C@@H](C)/C=C/C=C/C=C/C=C/C=C/C=C/C=C/[C@H](O[C@@H]2O[C@H](C)[C@@H](O)[C@H](NC(=S)Nc3cccnc3)[C@@H]2O)C[C@@H]2O[C@](O)(C[C@@H](O)C[C@@H](O)[C@H](O)CC[C@@H](O)C[C@@H](O)CC(=O)O[C@H]1C)C[C@H](O)[C@H]2C(=O)O [Compound A26, N-[3-(pyridin-3-yl)thioureidyl]amphotericin B] | 8 µg/mL | 8 µg/mL | 4 µg/mL | 2.55 µg/mL | 4 µg/mL | 4 µg/mL | 4 µg/mL | >100 µg/mL | –

More lines, main results first:

Row | Antifungal activity MIC (Candida krusei DSM 6128) | Antifungal activity MIC [1] | Antifungal activity MIC [2] | Antifungal activity IC50 [3] | Antifungal activity MIC [3] | Antifungal activity MIC [4] | Antifungal activity MIC [5] | SMILES | Hemotoxi EH50 (Human erythrocytes) | Hemotoxi EH50 (Human erythrocytes; human erythrocytes, 37° C., 30 minutes)
9 | 8 µg/mL | 8 µg/mL | 4 µg/mL | 2.85 µg/mL | 4 µg/mL | 4 µg/mL | 4 µg/mL | C[C@@H]1[C@H](O)[C@@H](C)/C=C/C=C/C=C/C=C/C=C/C=C/C=C/[C@H](O[C@@H]2O[C@H](C)[C@@H](O)[C@H](NC3CC(=O)N(c4ccc(Br)cc4)C3=O)[C@@H]2O)C[C@@H]2O[C@](O)(C[C@@H](O)C[C@@H](O)[C@H](O)CC[C@@H](O)C[C@@H](O)CC(=O)O[C@H]1C)C[C@H](O)[C@H]2C(=O)O (stereo partly shown) [Compound A3, N—[N-(4-bromophenyl)succinimidyl]amphotericin B] | >100 µg/mL | –
10 | 8 µg/mL | 8 µg/mL | 4 µg/mL | 3.11 µg/mL | 4 µg/mL | 4 µg/mL | 4 µg/mL | C[C@@H]1[C@H](O)[C@@H](C)/C=C/C=C/C=C/C=C/C=C/C=C/C=C/[C@H](O[C@@H]2O[C@H](C)[C@@H](O)[C@H](NC3CC(=O)N(c4ccccc4C(C)(C)C)C3=O)[C@@H]2O)C[C@@H]2O[C@](O)(C[C@@H](O)C[C@@H](O)[C@H](O)CC[C@@H](O)C[C@@H](O)CC(=O)O[C@H]1C)C[C@H](O)[C@H]2C(=O)O (stereo partly shown) [Compound A4, N—[N-(2-tert-butylophenyl)succinimidyl]amphotericin B] | >100 µg/mL | –
11 | 4 µg/mL | 4 µg/mL | 4 µg/mL | 1.94 µg/mL | 4 µg/mL | 2 µg/mL | 4 µg/mL | C[C@@H]1[C@H](O)[C@@H](C)/C=C/C=C/C=C/C=C/C=C/C=C/C=C/[C@H](O[C@@H]2O[C@H](C)[C@@H](O)[C@H](NC3CC(=O)N(c4ccc([N+](=O)[O-])cc4)C3=O)[C@@H]2O)C[C@@H]2O[C@](O)(C[C@@H](O)C[C@@H](O)[C@H](O)CC[C@@H](O)C[C@@H](O)CC(=O)O[C@H]1C)C[C@H](O)[C@H]2C(=O)O (stereo partly shown) [Compound A5, N—[N-(4-nitrophenyl)succinimidyl]amphotericin B] | >100 µg/mL | –
